Source: patent US20240101576A1, “HETEROCYCLIC INHIBITORS OF EGFR AND/OR HER2, FOR USE IN THE TREATMENT OF CANCER” (Scorpion Therapeutics, Inc., priority 2020, published 2024)
pIC50: −log10 of the molar value.

Experiments:
Type in all cases: cell-based
[1] = target: T1, EGFR exon 20 NPG Ins D770_N771 (Ba/F3 cells) (Homo sapiens, UniProt P00533, INS770NPG); experiment: Inhibitor activity on EGFR phosphorylation (pEGFR AlphaLISA, 2 h), Ba/F3 EGFR exon 20 NPG Ins
T1 construct: expressed in transfected cells; host or cells: Ba/F3 (murine pro-B cells), retroviral transduction, puromycin selection, IL3-independent pool
Method in brief: (§1)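 Steps: seed cells (Ba/F3 50K, CUTO14 12.5K per well); add 3-fold, 10-point compound dilution; incubate 2 h; lyse 1 hr; add acceptor then donor beads (1.5 hrs, RT, dark); read AlphaLISA signal for IC50.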

[2] = target: T2, EGFR exon 20 FQEA Ins A763_V764 (Ba/F3 cells) (Homo sapiens, UniProt P00533, INS763FQEA); experiment: Inhibitor activity on EGFR-dependent cell growth (CellTiter-Glo, 72 h), Ba/F3 EGFR exon 20 FQEA Ins; conditions: read-out: BaF3 FQEA IC50
T2 construct: expressed in transfected cells; host or cells: Ba/F3 (murine pro-B cells), retroviral transduction, puromycin selection, IL3-independent pool
T2 sequence (P00533 with tags, fused parts or gaps INS763FQEA): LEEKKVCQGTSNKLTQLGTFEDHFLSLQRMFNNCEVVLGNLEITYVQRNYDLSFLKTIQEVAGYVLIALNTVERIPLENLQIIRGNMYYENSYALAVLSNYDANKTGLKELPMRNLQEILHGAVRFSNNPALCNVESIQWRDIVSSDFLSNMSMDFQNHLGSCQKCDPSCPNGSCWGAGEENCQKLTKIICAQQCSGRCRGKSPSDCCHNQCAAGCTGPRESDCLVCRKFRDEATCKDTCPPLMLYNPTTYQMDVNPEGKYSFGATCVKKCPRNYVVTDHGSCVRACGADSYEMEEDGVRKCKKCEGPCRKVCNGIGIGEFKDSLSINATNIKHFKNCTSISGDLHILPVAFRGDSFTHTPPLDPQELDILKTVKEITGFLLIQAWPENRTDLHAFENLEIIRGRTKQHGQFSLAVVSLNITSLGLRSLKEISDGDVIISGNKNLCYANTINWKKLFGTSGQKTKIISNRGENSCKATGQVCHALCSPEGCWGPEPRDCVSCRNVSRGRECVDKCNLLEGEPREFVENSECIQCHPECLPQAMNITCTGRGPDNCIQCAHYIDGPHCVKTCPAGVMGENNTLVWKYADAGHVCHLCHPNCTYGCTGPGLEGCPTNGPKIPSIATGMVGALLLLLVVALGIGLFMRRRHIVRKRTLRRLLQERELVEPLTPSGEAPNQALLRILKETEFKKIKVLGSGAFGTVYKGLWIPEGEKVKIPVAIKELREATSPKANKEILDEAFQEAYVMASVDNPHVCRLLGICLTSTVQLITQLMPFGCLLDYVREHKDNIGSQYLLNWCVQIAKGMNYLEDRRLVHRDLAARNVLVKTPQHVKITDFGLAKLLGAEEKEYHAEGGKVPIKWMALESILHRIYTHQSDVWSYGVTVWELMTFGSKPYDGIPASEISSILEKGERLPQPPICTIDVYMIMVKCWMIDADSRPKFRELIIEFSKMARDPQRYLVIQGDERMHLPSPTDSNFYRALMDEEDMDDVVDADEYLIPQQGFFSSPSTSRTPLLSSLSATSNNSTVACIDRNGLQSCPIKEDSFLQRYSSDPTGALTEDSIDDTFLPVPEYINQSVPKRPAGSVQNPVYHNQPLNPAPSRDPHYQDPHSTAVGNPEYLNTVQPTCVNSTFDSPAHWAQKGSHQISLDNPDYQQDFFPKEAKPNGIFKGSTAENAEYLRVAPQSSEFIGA
Method in brief: (§2)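 Ba/F3, retrovirally transduced, puromycin-selected, grown without IL3; cells/well: L858R 400, L858R/C797S 600, exon 19del 800, FQEA 800. Cpds from 10 mM DMSO stock, 3-fold ×10 dilution, 120 nL per well; 72 h. CTG readout; IC50 via Hill equation.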

EGFR WT (Ba/F3 cells) = target: T3, EGFR WT (Ba/F3 cells) (Homo sapiens, UniProt P00533); experiment: Inhibitor activity on EGFR-dependent cell growth (CellTiter-Glo, 72 h), Ba/F3 EGFR WT; conditions: read-out: BaF3 WT IC50
T3 construct: expressed in transfected cells; host or cells: Ba/F3 (murine pro-B cells), retroviral transduction, puromycin selection, maintained with EGF
Method in brief: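 This growth assay used Ba/F3 cells that depend on wild-type EGFR and are kept in EGF without IL3. Compounds were made up as 10 mM DMSO stocks and diluted 3-fold over 10 points. 120 nL went onto 600 cells/well. After 72 hours, 40 μL CellTiter-Glo was added and luminescence read on EnVision after 30 min.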

EGFR (CUTO14 cells) = EGFR (CUTO14 cells) (Homo sapiens, UniProt P00533); experiment: Inhibitor activity on EGFR phosphorylation (pEGFR AlphaLISA, 2 h), CUTO14 cells
Sequence of EGFR (CUTO14 cells) (P00533 with tags, fused parts or gaps DUP767-769): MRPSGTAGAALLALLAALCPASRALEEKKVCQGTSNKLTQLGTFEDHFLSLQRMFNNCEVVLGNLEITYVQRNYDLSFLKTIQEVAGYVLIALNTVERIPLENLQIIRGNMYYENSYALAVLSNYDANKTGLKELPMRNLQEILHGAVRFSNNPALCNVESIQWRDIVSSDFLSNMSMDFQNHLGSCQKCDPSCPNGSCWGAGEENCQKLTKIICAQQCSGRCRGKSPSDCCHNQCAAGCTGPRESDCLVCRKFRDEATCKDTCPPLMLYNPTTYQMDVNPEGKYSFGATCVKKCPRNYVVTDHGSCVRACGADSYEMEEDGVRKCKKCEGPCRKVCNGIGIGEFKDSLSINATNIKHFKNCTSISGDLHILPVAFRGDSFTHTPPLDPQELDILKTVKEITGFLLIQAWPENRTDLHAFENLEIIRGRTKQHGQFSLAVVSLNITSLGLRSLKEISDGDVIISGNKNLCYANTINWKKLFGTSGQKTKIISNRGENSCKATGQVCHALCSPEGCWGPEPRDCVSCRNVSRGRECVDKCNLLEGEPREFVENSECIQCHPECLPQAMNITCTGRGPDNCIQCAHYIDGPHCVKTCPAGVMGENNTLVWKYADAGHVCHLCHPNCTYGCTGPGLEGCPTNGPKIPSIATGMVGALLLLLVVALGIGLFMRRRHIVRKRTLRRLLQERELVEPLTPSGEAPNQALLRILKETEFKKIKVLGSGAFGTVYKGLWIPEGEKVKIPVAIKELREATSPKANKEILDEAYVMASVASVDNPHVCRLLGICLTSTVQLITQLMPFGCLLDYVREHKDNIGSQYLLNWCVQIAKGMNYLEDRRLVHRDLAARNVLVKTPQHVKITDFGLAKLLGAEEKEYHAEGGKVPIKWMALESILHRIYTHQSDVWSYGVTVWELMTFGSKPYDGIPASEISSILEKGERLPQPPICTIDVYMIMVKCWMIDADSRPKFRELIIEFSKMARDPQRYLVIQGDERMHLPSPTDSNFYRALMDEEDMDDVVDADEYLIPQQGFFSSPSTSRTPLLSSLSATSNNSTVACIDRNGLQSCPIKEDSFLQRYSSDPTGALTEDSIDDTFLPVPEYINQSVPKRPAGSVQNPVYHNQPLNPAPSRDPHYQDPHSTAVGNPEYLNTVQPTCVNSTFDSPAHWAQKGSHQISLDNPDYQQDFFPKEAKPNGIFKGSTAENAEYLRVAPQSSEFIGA
Method in brief: as §1

[3] = target: T1, EGFR exon 20 NPG Ins D770_N771 (Ba/F3 cells); experiment: Inhibitor activity on EGFR-dependent cell growth (CellTiter-Glo, 72 h), Ba/F3 EGFR exon 20 NPG Ins; conditions: read-out: BaF3 NPG IC50
Method in brief: (§3)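 IC50s derive from a sigmoidal dose–response fit of CellTiter-Glo signal. The signal was normalised between […]-treated cells and cell-free medium. Ba/F3 mutant-EGFR cells, seeded at 400–800/well depending on the line, had 72 h of exposure to a 10-point, 3-fold compound series.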

[4] = target: T4, EGFR exon 20 SVD Ins D770_N771 (Ba/F3 cells) (Homo sapiens, UniProt P00533, INS770SVD); experiment: Inhibitor activity on EGFR-dependent cell growth (CellTiter-Glo, 72 h), Ba/F3 EGFR exon 20 SVD Ins; conditions: read-out: BaF3 SVD IC50
T4 construct: expressed in transfected cells; host or cells: Ba/F3 (murine pro-B cells), retroviral transduction, puromycin selection, IL3-independent pool
Method in brief: as §3

[5] = target: T4, EGFR exon 20 SVD Ins D770_N771 (Ba/F3 cells); experiment: Inhibitor activity on EGFR phosphorylation (pEGFR AlphaLISA, 2 h), Ba/F3 EGFR exon 20 SVD Ins
From the text: Example B. Inhibitor Activity on EGFR phosphorylation (pEGFR)
EGFR mutant Ba/F3 cells were generated by transduction with retrovirus containing vectors expressing EGFR L858R, EGFR exon 19del, EGFR L858R/C797S, EGFR exon 20 NPG Ins D770_N771, EGFR exon 20 ASV Ins V769_D770, or EGFR exon 20 SVD Ins D770_N771 genes along with a puromycin selection marker. Transduced cells are selected with puromycin for 7 days and are then be transferred into culture media without Interleukin 3 (IL3). Surviving cells are confirmed to express EGFR by Western blot and maintained as a pool. CUTO14 cells were obtained from Dr. Robert C. Doebele at the University of Colorado. The IC50 date are included in Table 6 and Table 7.
1.1 Cells are harvested from flask into cell culture medium and the cell number counted.
1.2 Cells are diluted with culture medium to the desired density and 40 μL of cell suspension is added into each well of 384-well cell culture plate and the seeding density is 50K cells/well (Ba/F3) or 12.5K cells/well (CUTO14).
2 Compound Preparation and Treatment
2.1 Test compounds are dissolved to 10 mM in a DMSO stock solution. 45 μL of stock solution is transferred to a 384 polypropylene plate (pp-plate). Perform 3-fold, 10-point dilution via transferring 15 μL compound into 30 μL DMSO using a TECAN (EVO200) liquid handler.
2.2 Spin plates at room temperature at 1,000 RPM for 1 minute.
2.3 Transfer 5 nL of diluted compound from compound source plate into the cell plate.
2.4 After compound treatment for 2 hours, perform pEGFR detection by AlphaLISA for compound treatment plates as described in “Detection” section.
3 Detection by pEGFR AlphaLISA (Perkin-Elmer)
3.1 Plates are removed from incubators and equilibrated at room temperature for 10 minutes, and media was removed
3.2 10 μL of lysis buffer is added and plates shaken at 600 rpm for 1 hr.
3.3 Prepare acceptor mix just before use and dispense 5 μL of acceptor mix to all the wells. Shake 350 rpm for Ihr in the dark
3.4 Prepare donor mix under low light conditions prior to use. Dispense 5 μL of donor mix to all the wells. Mix well on the shaker, seal and wrap in aluminum foil and incubate 1.5 hrs at room temperature in the dark
3.5 Transfer 18.5 μL mixture to OptiPlate 384, and read using an Envision. The IC50 date were included in Table 6 and Table 7.

[6] = target: T5, EGFR exon 20 ASV Ins V769_D770 (Ba/F3 cells) (Homo sapiens, UniProt P00533, INS769ASV); experiment: Inhibitor activity on EGFR phosphorylation (pEGFR AlphaLISA, 2 h), Ba/F3 EGFR exon 20 ASV Ins; conditions: EGFR phosphorylation, AlphaLISA, 2 hours; read-out: ASV IC50 (pEGFR)
T5 construct: expressed in transfected cells; host or cells: Ba/F3 (murine pro-B cells), retroviral transduction, puromycin selection, IL3-independent pool
T5 sequence (P00533 with tags, fused parts or gaps INS769ASV): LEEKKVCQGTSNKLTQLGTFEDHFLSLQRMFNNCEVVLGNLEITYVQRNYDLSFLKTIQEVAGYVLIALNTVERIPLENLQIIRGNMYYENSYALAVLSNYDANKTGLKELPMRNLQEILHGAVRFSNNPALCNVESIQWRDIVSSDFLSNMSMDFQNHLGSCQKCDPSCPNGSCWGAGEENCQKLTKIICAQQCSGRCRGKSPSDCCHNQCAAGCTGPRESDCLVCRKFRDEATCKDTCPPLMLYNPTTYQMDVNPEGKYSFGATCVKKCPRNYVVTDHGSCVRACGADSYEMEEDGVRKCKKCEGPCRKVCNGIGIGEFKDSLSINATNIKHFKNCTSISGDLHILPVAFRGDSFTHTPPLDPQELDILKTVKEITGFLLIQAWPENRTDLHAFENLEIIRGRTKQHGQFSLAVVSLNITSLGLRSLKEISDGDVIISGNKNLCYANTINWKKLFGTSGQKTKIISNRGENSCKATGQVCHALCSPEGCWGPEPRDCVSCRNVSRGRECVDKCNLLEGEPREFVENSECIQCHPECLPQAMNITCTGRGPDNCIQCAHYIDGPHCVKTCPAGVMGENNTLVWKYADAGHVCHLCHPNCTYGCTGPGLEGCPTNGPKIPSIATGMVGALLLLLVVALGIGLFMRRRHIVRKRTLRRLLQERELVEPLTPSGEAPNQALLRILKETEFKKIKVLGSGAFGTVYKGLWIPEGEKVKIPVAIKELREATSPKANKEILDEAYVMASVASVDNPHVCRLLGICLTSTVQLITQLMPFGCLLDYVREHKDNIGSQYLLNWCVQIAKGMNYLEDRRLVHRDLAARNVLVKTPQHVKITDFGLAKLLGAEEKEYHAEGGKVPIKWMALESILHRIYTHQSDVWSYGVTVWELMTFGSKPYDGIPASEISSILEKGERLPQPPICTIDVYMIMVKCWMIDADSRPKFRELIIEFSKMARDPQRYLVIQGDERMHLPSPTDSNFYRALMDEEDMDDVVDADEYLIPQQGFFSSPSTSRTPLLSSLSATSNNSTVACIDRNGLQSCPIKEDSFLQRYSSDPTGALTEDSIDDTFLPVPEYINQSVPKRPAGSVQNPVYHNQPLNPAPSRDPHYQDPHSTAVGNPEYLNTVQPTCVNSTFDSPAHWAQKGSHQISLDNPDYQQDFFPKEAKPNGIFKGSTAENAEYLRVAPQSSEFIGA
Method in brief: as §1

[7] = target: T5, EGFR exon 20 ASV Ins V769_D770 (Ba/F3 cells); experiment: Inhibitor activity on EGFR-dependent cell growth (CellTiter-Glo, 72 h), Ba/F3 EGFR exon 20 ASV Ins; conditions: read-out: BaF3 ASV IC50
Method in brief: as §3

[8] = target: T6, EGFR L858R/C797S (Ba/F3 cells) (Homo sapiens, UniProt P00533, C797S/L858R); experiment: Inhibitor activity on EGFR-dependent cell growth (CellTiter-Glo, 72 h), Ba/F3 EGFR L858R/C797S; conditions: read-out: BaF3 L858R/C797S IC50
T6 construct: expressed in transfected cells; host or cells: Ba/F3 (murine pro-B cells), retroviral transduction, puromycin selection, IL3-independent pool
T6 sequence (P00533 25-1210 C797S/L858R): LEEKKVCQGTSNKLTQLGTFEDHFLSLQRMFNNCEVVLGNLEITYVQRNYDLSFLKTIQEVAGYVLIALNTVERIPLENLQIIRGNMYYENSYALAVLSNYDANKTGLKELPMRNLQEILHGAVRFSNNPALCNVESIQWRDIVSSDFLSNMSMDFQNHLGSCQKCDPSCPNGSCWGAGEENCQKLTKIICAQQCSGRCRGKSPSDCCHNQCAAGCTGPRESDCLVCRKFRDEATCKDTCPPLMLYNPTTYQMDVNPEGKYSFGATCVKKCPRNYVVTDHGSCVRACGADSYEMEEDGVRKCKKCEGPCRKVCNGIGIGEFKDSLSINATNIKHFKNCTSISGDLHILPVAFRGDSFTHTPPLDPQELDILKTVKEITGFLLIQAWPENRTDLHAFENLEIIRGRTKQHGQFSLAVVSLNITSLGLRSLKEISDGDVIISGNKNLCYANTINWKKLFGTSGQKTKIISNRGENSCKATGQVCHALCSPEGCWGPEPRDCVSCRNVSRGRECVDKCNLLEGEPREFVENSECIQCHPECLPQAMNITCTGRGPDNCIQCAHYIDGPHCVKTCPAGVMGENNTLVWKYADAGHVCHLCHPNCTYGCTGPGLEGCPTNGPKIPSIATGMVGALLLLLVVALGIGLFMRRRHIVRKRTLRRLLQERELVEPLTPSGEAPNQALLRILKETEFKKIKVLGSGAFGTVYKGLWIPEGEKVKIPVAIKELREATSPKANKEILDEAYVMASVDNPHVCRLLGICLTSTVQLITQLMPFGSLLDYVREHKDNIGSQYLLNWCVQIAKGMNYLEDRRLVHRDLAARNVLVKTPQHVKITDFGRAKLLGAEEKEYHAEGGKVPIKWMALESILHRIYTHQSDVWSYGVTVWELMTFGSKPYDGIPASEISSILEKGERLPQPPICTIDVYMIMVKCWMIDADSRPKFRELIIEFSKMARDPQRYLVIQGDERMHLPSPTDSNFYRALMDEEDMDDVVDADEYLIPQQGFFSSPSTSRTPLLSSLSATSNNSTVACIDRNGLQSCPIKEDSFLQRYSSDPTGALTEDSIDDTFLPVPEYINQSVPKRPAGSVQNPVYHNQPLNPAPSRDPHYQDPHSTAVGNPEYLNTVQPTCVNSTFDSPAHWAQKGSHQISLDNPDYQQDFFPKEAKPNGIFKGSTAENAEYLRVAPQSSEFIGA
Method in brief: as §2

[9] = target: T7, EGFR exon 19del (Ba/F3 cells) (Homo sapiens, UniProt P00533); experiment: Inhibitor activity on EGFR phosphorylation (pEGFR AlphaLISA, 2 h), Ba/F3 EGFR exon 19del; conditions: read-out: Del19 IC50 (pEGFR)
Method in brief: as §1

[10] = target: T6, EGFR L858R/C797S (Ba/F3 cells); experiment: Inhibitor activity on EGFR phosphorylation (pEGFR AlphaLISA, 2 h), Ba/F3 EGFR L858R/C797S
Method in brief: as §1

EGFR L858R (Ba/F3 cells) [11] = target: T8, EGFR L858R (Ba/F3 cells) (Homo sapiens, UniProt P00533, L858R); experiment: Inhibitor activity on EGFR-dependent cell growth (CellTiter-Glo, 72 h), Ba/F3 EGFR L858R; conditions: read-out: BaF3 L858R IC50
T8 construct: expressed in transfected cells; host or cells: Ba/F3 (murine pro-B cells), retroviral transduction, puromycin selection, IL3-independent pool
Method in brief: as §2

[12] = target: T7, EGFR exon 19del (Ba/F3 cells); experiment: Inhibitor activity on EGFR-dependent cell growth (CellTiter-Glo, 72 h), Ba/F3 EGFR exon 19del; conditions: Ba/F3 EGFR exon 19del cell growth, read-out: BaF3 Del19 IC50
Method in brief: as §2

EGFR L858R (Ba/F3 cells) [13] = target: T8, EGFR L858R (Ba/F3 cells); experiment: Inhibitor activity on EGFR phosphorylation (pEGFR AlphaLISA, 2 h), Ba/F3 EGFR L858R
Method in brief: as §1

SMILES | pIC50 [1] | pIC50 [2] | pIC50 (EGFR WT (Ba/F3 cells)) | pIC50 (EGFR (CUTO14 cells)) | pIC50 [3] | pIC50 [4] | pIC50 [5] | pIC50 [6] | pIC50 [7] | pIC50 [8] | pIC50 [9] | pIC50 [10] | pIC50 (EGFR L858R (Ba/F3 cells) [11]) | pIC50 [12] | pIC50 (EGFR L858R (Ba/F3 cells) [13])
COc1c(Cl)cccc1Nc1c(-c2ccnc(Nc3cnn(CC(F)F)c3)n2)[nH]c2c1C(=O)NCC2 [compound 514, 3-[(3-chloro-2-methoxyphenyl)amino]-2-(2-{[1-(2,2-difluoroethyl)pyrazol-4-yl]amino}pyrimidin-4-yl)-1H,5H,6H,7H-pyrrolo[3,2-c]pyridin-4-one] | > 7.00 | > 7.00 | > 7.00 | 6.00 to 7.00 | 6.00 to 7.00 | > 7.00 | > 7.00 | > 7.00 | > 7.00 | – | – | – | – | – | –
COc1c(Cl)cccc1Nc1c(-c2ccnc(Nc3cnnn3C)n2)[nH]c2c1C(=O)NCC2 [compound 512, 3-[(3-chloro-2-methoxyphenyl)amino]-2-{2-[(3-methyl-1,2,3-triazol-4-yl)amino]pyrimidin-4-yl}-1H,5H,6H,7H-pyrrolo[3,2-c]pyridin-4-one] | > 7.00 | > 7.00 | 6.00 to 7.00 | > 7.00 | > 7.00 | > 7.00 | > 7.00 | > 7.00 | > 7.00 | – | – | – | – | – | –
COc1c(F)cccc1Nc1c(-c2ccnc(C)n2)[nH]c2c1C(=O)NCC2C[C@H]1COCCO1 (single isomer, unassigned) [Compound 606] | – | > 7.00 | 6.00 to 7.00 | > 7.00 | > 7.00 | > 7.00 | – | – | > 7.00 | > 7.00 | > 7.00 | > 7.00 | > 7.00 | > 7.00 | > 7.00
COc1c(F)cccc1Nc1c(-c2ccnc(C)n2)[nH]c2c1C(=O)NCC2C[C@@H]1COCCO1 (single isomer, unassigned) [Compound 604] | – | > 7.00 | 6.00 to 7.00 | > 7.00 | > 7.00 | > 7.00 | – | – | > 7.00 | > 7.00 | > 7.00 | > 7.00 | > 7.00 | > 7.00 | > 7.00
C=CC(=O)N1CCC2(CC1)CNC(=O)c1c2[nH]c(-c2ccnc3ccc(OC)nc23)c1Nc1cccc(F)c1OC [Compound 160, 1-acryloyl-3′-((3-fluoro-2-methoxyphenyl)amino)-2′-(6-methoxy-1,5-naphthyridin-4-yl)-5′,6′-dihydrospiro[piperidine-4,7′-pyrrolo[3,2-c]pyridin]-4′(1′H)-one] | > 7.00 | > 7.00 | – | > 7.00 | > 7.00 | > 7.00 | > 7.00 | > 7.00 | > 7.00 | – | – | – | – | – | –
COc1c(Cl)cccc1Nc1c(-c2ccncn2)[nH]c2c1C(=O)NC[C@H]2C[C@@H]1COCCO1 [Compound 568, (7R)-3-[(3-chloro-2-methoxyphenyl)amino]-7-[(2R)-1,4-dioxan-2-ylmethyl]-2-(pyrimidin-4-yl)-1H,5H,6H,7H-pyrrolo[3,2-c]pyridin-4-one] | – | > 7.00 | 6.00 to 7.00 | > 7.00 | > 7.00 | – | – | – | – | > 7.00 | > 7.00 | > 7.00 | > 7.00 | > 7.00 | > 7.00
COc1c(Cl)cccc1Nc1c(-c2ccnc(N)n2)[nH]c2c1C(=O)NCC2 [Compound 148, 2-(2-aminopyrimidin-4-yl)-3-((3-chloro-2-methoxyphenyl)amino)-1,5,6,7-tetrahydro-4H-pyrrolo[3,2-c]pyridin-4-one] | > 7.00 | 6.00 to 7.00 | 6.00 to 7.00 | > 7.00 | > 7.00 | – | > 7.00 | > 7.00 | – | – | – | – | – | – | –
COc1c(F)cccc1Nc1c(-c2ccncn2)[nH]c2c1C(=O)NC[C@H]2C[C@@H]1COCCO1 [Compound 569, (7R)-7-[(2R)-1,4-dioxan-2-ylmethyl]-3-[(3-fluoro-2-methoxyphenyl)amino]-2-(pyrimidin-4-yl)-1H,5H,6H,7H-pyrrolo[3,2-c]pyridin-4-one] | – | > 7.00 | 6.00 to 7.00 | > 7.00 | > 7.00 | > 7.00 | – | – | > 7.00 | > 7.00 | > 7.00 | > 7.00 | > 7.00 | > 7.00 | > 7.00
COc1c(Cl)cccc1Nc1c(-c2ccnc3c(N)noc23)[nH]c2c1C(=O)NCC2 [compound 524, 2-{3-amino-[1,2]oxazolo[4,5-b]pyridin-7-yl}-3-[(3-chloro-2-methoxyphenyl)amino]-1H,5H,6H,7H-pyrrolo[3,2-c]pyridin-4-one] | > 7.00 | – | 6.00 to 7.00 | > 7.00 | > 7.00 | > 7.00 | > 7.00 | > 7.00 | > 7.00 | – | – | – | – | – | –
COc1c(Cl)cccc1Nc1c(-c2ccncn2)[nH]c2c1C(=O)NCC2C[C@H]1COCCO1 (single isomer, unassigned) [Compound 527, (7R*)-3-[(3-chloro-2-methoxyphenyl)amino]-7-[(2S)-1,4-dioxan-2-ylmethyl]-2-(pyrimidin-4-yl)-1H,5H,6H,7H-pyrrolo[3,2-c]pyridin-4-one] | – | – | 6.00 to 7.00 | > 7.00 | > 7.00 | – | – | – | – | > 7.00 | > 7.00 | > 7.00 | > 7.00 | > 7.00 | > 7.00
